Where two headings read alike, the source gives them in different places.
Columns and labels:
[1] = assumed the same as the corresponding fluorescent dye, cited from earlier work
[2] = UV-VIS absorption and fluorescence emission spectra; assay type: physicochemical; conditions: 0.1M phosphate buffer (1x PBS for 7d5); ± 1 nm error
Procedure: All labeled samples were dissolved in water and diluted with 0.1 M phosphate buffer or 1×PBS (for 7d5). Assuming that the labeled bisphosphonates have the same extinction coefficient (E) as the carboxylic acid of the free fluorescent label, the final concentrations for all labeled products were calculated from UV-VIS absorption spectra at λ=493 nm (ε=73000 M^−1 cm^−1 at pH 7.2) for FAM conjugates (7a1-7a3, 7b1, 7c1, 7d1-7d2, 7e1-7e2, 7f1-7f2), λ=567.5 nm (ε=114850 M^−1cm^−1 at pH 7.5) for RhR-X conjugates (7a4, 7b2, 7c2), λ=580 nm (c=72000 M^−1cm^−1 at pH 8.0) for ROX conjugates (7a5, 7b3), λ=648 nm (ε=240000 M^−1cm^−1 at pH 7.2) for AF647 conjugates (7a6, 7b4, 7d3), λ=774 nm (ε=240000 M^−1cm^−1 at pH 7.4) for 800CW conjugates (7d4), λ=644 nm (ε=271000 M^−1cm^−1 at pH 7.4, 1×PBS) for Sulfo-Cy5 conjugates (7d5).
Emission spectra for FAM and RhR-X conjugates were recorded using an excitation wavelength of 490 nm or 520 nm, respectively. Emission spectra for AF647 conjugates and Sulfo-Cy5 conjugates were recorded using an excitation wavelength of 600 nm. Emission spectra of 5(6)-ROX conjugates were recorded using an excitation wavelength of 575 nm. Emission spectra of IRDye CW800 conjugate was recorded using an excitation wavelength of 750 nm. The set-up of excitation slit, emission slit, integration time and increment were determined to get optimal spectra for each compound respectively, depending on the sample concentration and spectrometer used.

[3] = test system: unprenylated Rap1A (uRap1A); experiment: Prenylation assay: Western blot for unprenylated Rap1A in J774.2 macrophages; assay type: cell-based, mouse; conditions: 10 or 100 μM, 24 h, FIG. 5A-C
Procedure: To determine the effect of fluorescent BP probes on protein prenylation, J774.2 mouse macrophages were plated out at 2×10^5 cells/mL in 24-well plates and left to adhere overnight. Cells were then treated with 10 or 100 μM of fluorescent analogues of RIS, dRIS, and ZOL, the respective native BP, or vehicle, for 24 h. Cells were lysed in radioimmunoprecipitation buffer, and proteins were separated by sodium dodecyl sulfate polyacrylamide gel electrophoresis and transferred to polyvinyl difluoride membranes by western blotting. Membranes were then incubated with antibodies to the unprenylated form of Rap1A (uRap1A) and the housekeeping protein β-actin, which were detected by incubation with fluorescently-labeled secondary antibodies and scanning of membranes on a LI-COR Infrared Imager. Results shown are representative of 2 independent experiments. The ratio between abundance of unprenylated RaplA and β-actin is indicated for each sample below the blots in FIG. 5.

Row | Compound | Extinction coefficient ([1]; pH 7.5, 0.1M phosphate buffer) | Maximum absorption wavelength (λmax (abs), nm) [2] | Maximum emission wavelength (λmax (em), nm) [2] | Extinction coefficient ([1]; pH 7.2, 0.1M phosphate buffer) | Extinction coefficient ([1]; pH 7.0, 0.1M phosphate buffer) | accumulation of unprenylated Rap1A (anti-prenylation activity) [3] | Extinction coefficient ([1]; pH 8.0, 0.1M phosphate buffer) | Extinction coefficient ([1]; 1x PBS, pH 7.4)
1 | CCN(CC)c1ccc2c(-c3ccc(S(=O)(=O)NCCCCCC(=O)NCC(O)C[n+]4cccc(CC(O)(C(=O)O)P(=O)(O)O)c4)cc3S(=O)(=O)O)c3ccc(=[N+](CC)CC)cc-3oc2c1 (centres unmarked) [5(6)-RhR-RISPC, 3-(2-carboxy-2-hydroxy-2-phosphonoethyl)-1-{3-[6-({4-[6-(diethylamino)-3-(diethylimino)-3H-xanthen-9-yl]-3-sulfobenzene}sulfonamido)hexanamido]-2-hydroxypropyl}pyridinium] | 114,850 (pH 7.5) M^−1cm^−1 | 568 nm | 589 nm | – | – | – | – | –
2 | O=C(NCC(O)C[n+]1cc(CC(O)(C(=O)O)P(=O)(O)O)n2ccccc21)c1ccc(C(=O)O)c(-c2c3ccc(=O)cc-3oc3cc(O)ccc23)c1 (centres unmarked) [Compound 6-FAM-MINPC, 3-(2-carboxy-2-hydroxy-2-phosphonoethyl)-1-(3-(4-carboxy-3-(6-hydroxy-3-oxo-3H-xanthen-9-yl)benzamido)-2-hydroxypropyl)imidazo[1,2-a]pyridin-1-ium] | – | 493 nm | 517 nm | 73,000 (pH 7.2) M^−1cm^−1 | – | – | – | –
3 | CCN(CC)c1ccc2c(-c3ccc(S(=O)(=O)NCCCCCC(=O)NCC(O)C[n+]4cccc(CC(P(=O)(O)O)P(=O)(O)O)c4)cc3S(=O)(=O)O)c3ccc(=[N+](CC)CC)cc-3oc2c1 (centres unmarked) [5(6)-RhR-dRIS, 1-{3-[6-({4-[6-(diethylamino)-3-(diethylimino)-3H-xanthen-9-yl]-3-sulfobenzene}sulfonamido)hexanamido]-2-hydroxypropyl}-3-(2,2-diphosphonoethyl)pyridin-1-ium] | 114,850 (pH 7.5) M^−1cm^−1 | 567.5 nm | 589 nm | – | – | – | – | –
4 | 2-(5-(3-(6-((2-hydroxy-3-(1-(2-hydroxy-2,2-diphosphonoethyl)-1H-imidazol-3-ium-3-yl)propyl)amino)-6-oxohexyl)-3-methyl-5-sulfo-1-(3-sulfopropyl)indolin-2-ylidene)penta-1,3-dien-1-yl)-3,3-dimethyl-5-sulfo-1-(3-sulfopropyl)-3H-indol-1-ium [AF647-ZOL] | – | 648.5 nm | 666 nm | – | 240,000 (pH 7.0) M^−1cm^−1 | – | – | –
5 | O=C(NCC(O)C[n+]1cc(CC(O)(P(=O)(O)O)P(=O)(O)O)n2ccccc21)c1ccc(C(=O)O)c(-c2c3ccc(=O)cc-3oc3cc(O)ccc23)c1 (centres unmarked) [Compound 6-FAM-MIN, 1-(3-(4-carboxy-3-(6-hydroxy-3-oxo-3H-xanthen-9-yl)benzamido)-2-hydroxypropyl)-3-(2-hydroxy-2,2-diphosphonoethyl)imidazo[1,2-a]pyridin-1-ium] | – | 493 nm | 518 nm | 73,000 (pH 7.2) M^−1cm^−1 | – | – | – | –
6 | 1-(3-(4-carboxy-3-(6-hydroxy-3-oxo-3H-xanthen-9-yl)benzamido)-2-hydroxypropyl)-3-(2-hydroxy-2,2-diphosphonoethyl)pyridin-1-ium [Compound 6-FAM-RIS] | – | 493 nm | 517 nm | 73,000 (pH 7.2) M^−1cm^−1 | – | clearly detectable | – | –
7 | 1-(3-(3-carboxy-4-(6-hydroxy-3-oxo-3H-xanthen-9-yl)benzamido)-2-hydroxypropyl)-3-(2-hydroxy-2,2-diphosphonoethyl)pyridin-1-ium [Compound 5-FAM-RIS] | – | 493 nm | 521 nm | 73,000 (pH 7.2) M^−1cm^−1 | – | clearly detectable | – | –
8 | O=C(NCC(O)C[n+]1cc(CC(O)(C(=O)O)P(=O)(O)O)n2ccccc21)c1ccc(-c2c3ccc(=O)cc-3oc3cc(O)ccc23)c(C(=O)O)c1 (centres unmarked) [Compound 5-FAM-MINPC, 3-(2-carboxy-2-hydroxy-2-phosphonoethyl)-1-(3-(3-carboxy-4-(6-hydroxy-3-oxo-3H-xanthen-9-yl)benzamido)-2-hydroxypropyl)imidazo[1,2-a]pyridin-1-ium] | – | 493 nm | 522 nm | 73,000 (pH 7.2) M^−1cm^−1 | – | – | – | –
9 | CCN(CC)c1ccc2c(-c3ccc(S(=O)(=O)NCCCCCC(=O)NCC(O)C[n+]4cccc(CC(O)(P(=O)(O)O)P(=O)(O)O)c4)cc3S(=O)(=O)O)c3ccc(=[N+](CC)CC)cc-3oc2c1 (centres unmarked) [5(6)-RhR-RIS, 1-{3-[6-({4-[6-(diethylamino)-3-(diethylimino)-3H-xanthen-9-yl]-3-sulfobenzene}sulfonamido)hexanamido]-2-hydroxypropyl}-3-(2-hydroxy-2,2-diphosphonoethyl)pyridinium] | 114,850 (pH 7.5) M^−1cm^−1 | 567.5 nm | 589 nm | – | – | – | – | –
10 | 16-[2-carboxy-4-({3-[4-(2-carboxy-2-hydroxy-2-phosphonoethyl)pyridin-1-ium-1-yl]-2-hydroxypropyl}carbamoyl)phenyl]-3-oxa-9λ^5,23-diazaheptacyclo[17.7.1.1^5,9.0^2,17.0^4,15.0^23,27.0^13,28]octacosa-1(27),2(17),4,9(28), 13,15,18-heptaen-9-ylium [5(6)-ROX-RISPC] | – | 579 nm | 606 nm | – | – | – | 72,000 (pH 8.0) M^−1cm^−1 | –
11 | CC1(C)C(C=CC=CC=C2N(CCCS(=O)(=O)O)c3ccc(S(=O)(=O)O)cc3C2(C)CCCCCC(=O)NCC(O)C[n+]2cccc(CC(O)(C(=O)O)P(=O)(O)O)c2)=[N+](CCCS(=O)(=O)O)c2ccc(S(=O)(=O)O)cc21 (centres unmarked) [AF647-RISPC, 2-(5-(3-(6-((3-(3-(2-carboxy-2-hydroxy-2-phosphonoethyl)pyridin-1-ium-1-yl)-2-hydroxypropyl)amino)-6-oxohexyl)-3-methyl-5-sulfo-1-(3-sulfopropyl)indolin-2-ylidene)penta-1,3-dien-1-yl)-3,3-dimethyl-5-sulfo-1-(3-sulfopropyl)-3H-indol-1-ium] | – | 648 nm | 666 nm | – | 240,000 (pH 7.0) M^−1cm^−1 | – | – | –
12 | O=C(NCC(O)C[n+]1cc(CC(O)(P(=O)(O)O)P(=O)(O)O)n2ccccc21)c1ccc(-c2c3ccc(=O)cc-3oc3cc(O)ccc23)c(C(=O)O)c1 (centres unmarked) [Compound 5-FAM-MIN, 1-(3-(3-carboxy-4-(6-hydroxy-3-oxo-3H-xanthen-9-yl)benzamido)-2-hydroxypropyl)-3-(2-hydroxy-2,2-diphosphonoethyl)imidazo[1,2-a]pyridin-1-ium] | – | 493 nm | 522 nm | 73,000 (pH 7.2) M^−1cm^−1 | – | – | – | –
13 | CN1/C(=C/C=C/C=C/C2=[N+](CCCCCC(=O)NCC(O)C[n+]3ccn(CC(O)(P(=O)(O)O)P(=O)(O)O)c3)c3ccc(S(=O)(=O)[O-])cc3C2(C)C)C(C)(C)c2cc(S(=O)(=O)[O-])ccc21 (centres unmarked) [Sulfo-Cy5-ZOL, 1-(6-((2-hydroxy-3-(1-(2-hydroxy-2,2-diphosphonoethyl)-1H-imidazol-3-ium-3-yl)propyl)amino)-6-oxohexyl)-3,3-dimethyl-2-((1E,3E,5E)-5-(1,3,3-trimethyl-5-sulfonatoindolin-2-ylidene)penta-1,3-dien-1-yl)-3H-indol-1-ium-5-sulfonate] | – | 644 nm | 663 nm | – | – | – | – | 271,000 (1x PBS, pH 7.4) M^−1cm^−1

Source: patent US20180064829A1, “FLUORESCENT BISPHOSPHONATE ANALOGS” (University of Southern California, priority 2015, published 2018)
